Data published in ChEMBL document CHEMBL4184197 (Bioorg Med Chem, 2018).

How the values were obtained:
[1] = molecular target: Beta-2 adrenergic receptor (Homo sapiens) (UniProt P07550); assay: Binding affinity to recombinant human beta2 receptor at 10 uM after 120 mins by scintillation counting analysis relative to control
[2] = molecular target: 5-hydroxytryptamine receptor 6 (Homo sapiens) (UniProt P50406); assay: Binding affinity to recombinant human 5-HT6 receptor at 10 uM after 120 mins by scintillation counting analysis relative to control
[3] = molecular target: Acetylcholinesterase (Homo sapiens) (UniProt P22303); assay: Binding affinity to recombinant human acetylcholinesterase at 10 uM after 30 mins by spectrophotometric analysis relative to control
Rattus norvegicus = organism: Rattus norvegicus; assay: Binding affinity to rat SKCa channel at 10 uM after 60 mins by scintillation counting analysis relative to control
[4] = molecular target: Nitric oxide synthase, inducible (Mus musculus) (UniProt P29477); assay: Binding affinity to recombinant mouse iNOS at 10 uM after 120 mins by spectrophotometric analysis relative to control
Caspase-8 (Homo sapiens) = Caspase-8 (Homo sapiens) (UniProt Q14790); assay: Binding affinity to recombinant human caspase 8 at 10 uM after 45 mins by fluorescence assay relative to control
[5] = molecular target: 5-hydroxytryptamine receptor 1B (Homo sapiens) (UniProt P28222); assay: Binding affinity to recombinant human full length 5-HT1B receptor at 10 uM after 90 mins by scintillation counting analysis relative to control
[6] = molecular target: Adenosine receptor A1 (Homo sapiens) (UniProt P30542); assay: Binding affinity to recombinant human A1 receptor at 10 uM after 60 mins by scintillation counting analysis relative to control
[7] = molecular target: 5-hydroxytryptamine receptor 2A (Homo sapiens) (UniProt P28223); assay: Binding affinity to recombinant human 5-HT2A receptor at 10 uM after 60 mins by scintillation counting analysis relative to control
[8] = molecular target: Prostaglandin G/H synthase 1 (Homo sapiens) (UniProt P23219); assay: Binding affinity to recombinant human COX1 at 10 uM after 3 mins by fluorescence assay relative to control
[9] = molecular target: Type-1 angiotensin II receptor (Homo sapiens) (UniProt P30556); assay: Binding affinity to recombinant human AT1 receptor at 10 uM after 120 mins by scintillation counting analysis relative to control
[10] = molecular target: Galanin receptor type 2 (Homo sapiens) (UniProt O43603); assay: Binding affinity to recombinant human GAL2 receptor at 10 uM after 120 mins by scintillation counting analysis relative to control
CHO-K1 = assay: Genotoxicity in CHOK1 cells in presence of rat liver S9 fraction by fluorescence imaging based micronucleus assay; type: toxicity, cell-based, Cricetulus griseus; settings: chinese hamster
[11] = molecular target: D(3) dopamine receptor (Homo sapiens) (UniProt P35462); assay: Binding affinity to recombinant human dopamine receptor D3 at 10 uM after 60 mins by scintillation counting analysis relative to control
[12] = molecular target: Mu-type opioid receptor (Homo sapiens) (UniProt P35372); assay: Binding affinity to recombinant human mu opioid receptor at 10 uM after 120 mins by scintillation counting analysis relative to control
Salmonella typhimurium = assay: Mutagenicity in Salmonella typhimurium TA98 in presence of rat liver S9 fraction by Ames test; type: toxicity, organism-based; settings: salmonella enterica subsp. enterica serovar typhimurium
[13] = molecular target: Stromelysin-1 (Homo sapiens) (UniProt P08254); assay: Binding affinity to human MMP3 at 10 uM after 30 mins by fluorescence assay relative to control
[14] = molecular target: Neprilysin (Homo sapiens) (UniProt P08473); assay: Binding affinity to neutral endopeptidase (unknown origin) at 10 uM by relative to control
Homo sapiens = organism: Homo sapiens; assay: Binding affinity to recombinant human dopamine receptor D4.4 at 10 uM after 60 mins by scintillation counting analysis relative to control

5-hydroxytryptamine receptor 6 (Homo sapiens), sequence (P50406 whole entry): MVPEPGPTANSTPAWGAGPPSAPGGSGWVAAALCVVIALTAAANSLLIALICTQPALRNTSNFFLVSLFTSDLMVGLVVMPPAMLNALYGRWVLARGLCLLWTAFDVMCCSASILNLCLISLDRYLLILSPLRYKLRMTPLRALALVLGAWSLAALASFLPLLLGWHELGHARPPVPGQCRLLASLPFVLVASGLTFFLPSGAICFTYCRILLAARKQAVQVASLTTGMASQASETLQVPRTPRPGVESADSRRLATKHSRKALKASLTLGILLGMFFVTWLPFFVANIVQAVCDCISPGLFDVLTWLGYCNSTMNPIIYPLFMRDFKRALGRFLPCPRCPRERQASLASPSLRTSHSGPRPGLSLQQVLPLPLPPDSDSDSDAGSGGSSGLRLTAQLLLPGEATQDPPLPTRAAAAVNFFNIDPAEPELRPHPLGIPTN
Adenosine receptor A1 (Homo sapiens), sequence (P30542 whole entry): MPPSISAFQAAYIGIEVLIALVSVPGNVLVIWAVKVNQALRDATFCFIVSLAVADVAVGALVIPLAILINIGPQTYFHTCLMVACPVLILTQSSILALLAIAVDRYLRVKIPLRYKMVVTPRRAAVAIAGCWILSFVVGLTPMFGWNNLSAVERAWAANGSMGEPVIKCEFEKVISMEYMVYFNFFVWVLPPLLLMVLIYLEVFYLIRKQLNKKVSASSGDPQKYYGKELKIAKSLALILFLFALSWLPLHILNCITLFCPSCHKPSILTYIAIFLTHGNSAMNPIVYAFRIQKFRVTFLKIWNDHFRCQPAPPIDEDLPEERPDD
5-hydroxytryptamine receptor 2A (Homo sapiens), sequence (P28223 whole entry): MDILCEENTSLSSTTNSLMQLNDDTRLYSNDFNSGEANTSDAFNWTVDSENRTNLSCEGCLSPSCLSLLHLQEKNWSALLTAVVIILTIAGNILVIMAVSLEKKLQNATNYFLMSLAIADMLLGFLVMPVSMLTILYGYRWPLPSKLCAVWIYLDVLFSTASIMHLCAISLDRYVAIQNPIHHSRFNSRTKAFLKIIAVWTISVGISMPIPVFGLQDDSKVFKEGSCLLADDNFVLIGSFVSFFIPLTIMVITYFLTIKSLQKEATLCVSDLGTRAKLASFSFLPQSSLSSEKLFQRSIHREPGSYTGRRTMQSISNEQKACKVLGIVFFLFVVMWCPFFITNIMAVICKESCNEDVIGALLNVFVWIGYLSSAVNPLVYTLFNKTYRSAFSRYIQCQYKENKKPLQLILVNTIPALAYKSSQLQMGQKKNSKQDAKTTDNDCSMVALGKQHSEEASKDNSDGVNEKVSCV
5-hydroxytryptamine receptor 1B (Homo sapiens), sequence (P28222 whole entry): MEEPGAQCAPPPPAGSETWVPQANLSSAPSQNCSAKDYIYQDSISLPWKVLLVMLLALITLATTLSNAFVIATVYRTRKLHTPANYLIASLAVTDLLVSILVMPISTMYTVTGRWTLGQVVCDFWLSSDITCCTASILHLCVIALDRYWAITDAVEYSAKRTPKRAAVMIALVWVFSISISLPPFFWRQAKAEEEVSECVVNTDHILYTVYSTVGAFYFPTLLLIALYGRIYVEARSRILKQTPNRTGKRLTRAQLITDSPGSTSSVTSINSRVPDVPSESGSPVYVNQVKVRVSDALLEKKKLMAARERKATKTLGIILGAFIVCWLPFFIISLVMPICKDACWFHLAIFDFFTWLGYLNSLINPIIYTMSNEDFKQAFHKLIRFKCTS
Mu-type opioid receptor (Homo sapiens), sequence (P35372 whole entry): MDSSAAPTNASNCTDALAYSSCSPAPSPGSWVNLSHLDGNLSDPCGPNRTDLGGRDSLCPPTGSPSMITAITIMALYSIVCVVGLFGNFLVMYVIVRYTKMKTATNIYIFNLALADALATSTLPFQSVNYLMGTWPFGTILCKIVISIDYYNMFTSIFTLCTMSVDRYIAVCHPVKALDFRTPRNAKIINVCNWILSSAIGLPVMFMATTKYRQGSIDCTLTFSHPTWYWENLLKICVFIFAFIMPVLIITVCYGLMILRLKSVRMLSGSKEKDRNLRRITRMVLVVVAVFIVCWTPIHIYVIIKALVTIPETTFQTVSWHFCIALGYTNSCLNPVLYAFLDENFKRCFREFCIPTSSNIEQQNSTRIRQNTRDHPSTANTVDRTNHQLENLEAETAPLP
Caspase-8 (Homo sapiens), sequence (Q14790 217-374 limits assumed): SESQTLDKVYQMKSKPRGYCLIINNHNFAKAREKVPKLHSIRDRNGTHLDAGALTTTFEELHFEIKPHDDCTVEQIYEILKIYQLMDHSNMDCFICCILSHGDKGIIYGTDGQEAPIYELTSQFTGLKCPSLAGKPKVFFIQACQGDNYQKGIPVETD
Caspase-8 (Homo sapiens), sequence (Q14790 385-479 limits assumed): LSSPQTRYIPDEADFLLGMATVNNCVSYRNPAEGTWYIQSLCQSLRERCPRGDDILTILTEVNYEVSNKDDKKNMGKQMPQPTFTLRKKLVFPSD
Acetylcholinesterase (Homo sapiens), sequence (P22303 whole entry): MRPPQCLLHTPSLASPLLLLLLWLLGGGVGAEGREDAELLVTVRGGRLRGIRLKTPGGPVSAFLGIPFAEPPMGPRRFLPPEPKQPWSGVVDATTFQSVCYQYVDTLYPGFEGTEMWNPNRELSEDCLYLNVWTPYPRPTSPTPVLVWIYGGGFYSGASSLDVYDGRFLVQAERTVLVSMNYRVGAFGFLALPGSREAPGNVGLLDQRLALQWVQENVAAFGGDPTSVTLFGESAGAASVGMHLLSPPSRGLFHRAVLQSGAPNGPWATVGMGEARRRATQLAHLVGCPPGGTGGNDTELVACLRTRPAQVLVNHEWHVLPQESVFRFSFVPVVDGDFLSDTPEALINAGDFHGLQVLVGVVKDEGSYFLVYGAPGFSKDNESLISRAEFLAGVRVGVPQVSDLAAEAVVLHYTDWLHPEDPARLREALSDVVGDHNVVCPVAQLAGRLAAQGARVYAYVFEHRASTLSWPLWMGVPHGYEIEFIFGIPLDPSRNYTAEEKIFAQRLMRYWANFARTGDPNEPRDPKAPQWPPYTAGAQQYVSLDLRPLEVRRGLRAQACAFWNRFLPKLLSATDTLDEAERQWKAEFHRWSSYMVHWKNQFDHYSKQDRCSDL
Neprilysin (Homo sapiens), sequence (P08473 whole entry): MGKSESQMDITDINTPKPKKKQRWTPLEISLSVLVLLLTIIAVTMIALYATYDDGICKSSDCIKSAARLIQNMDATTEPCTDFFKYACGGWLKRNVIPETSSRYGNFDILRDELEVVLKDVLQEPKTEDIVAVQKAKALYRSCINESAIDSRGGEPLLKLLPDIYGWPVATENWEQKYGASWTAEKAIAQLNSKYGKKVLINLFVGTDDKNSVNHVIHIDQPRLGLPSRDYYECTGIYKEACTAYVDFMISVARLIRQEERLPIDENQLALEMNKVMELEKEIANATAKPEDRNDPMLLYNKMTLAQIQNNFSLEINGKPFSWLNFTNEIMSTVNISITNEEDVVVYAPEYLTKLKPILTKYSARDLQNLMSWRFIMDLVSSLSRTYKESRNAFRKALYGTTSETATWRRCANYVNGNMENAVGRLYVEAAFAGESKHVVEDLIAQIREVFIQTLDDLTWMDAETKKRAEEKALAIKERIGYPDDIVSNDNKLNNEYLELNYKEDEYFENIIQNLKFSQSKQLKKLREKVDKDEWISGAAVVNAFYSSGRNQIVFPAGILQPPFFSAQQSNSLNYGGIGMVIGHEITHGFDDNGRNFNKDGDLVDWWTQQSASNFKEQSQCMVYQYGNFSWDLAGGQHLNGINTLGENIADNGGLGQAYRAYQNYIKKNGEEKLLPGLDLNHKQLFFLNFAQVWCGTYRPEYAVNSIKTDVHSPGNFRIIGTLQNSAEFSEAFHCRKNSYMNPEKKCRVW
Beta-2 adrenergic receptor (Homo sapiens), sequence (P07550 whole entry, looked up): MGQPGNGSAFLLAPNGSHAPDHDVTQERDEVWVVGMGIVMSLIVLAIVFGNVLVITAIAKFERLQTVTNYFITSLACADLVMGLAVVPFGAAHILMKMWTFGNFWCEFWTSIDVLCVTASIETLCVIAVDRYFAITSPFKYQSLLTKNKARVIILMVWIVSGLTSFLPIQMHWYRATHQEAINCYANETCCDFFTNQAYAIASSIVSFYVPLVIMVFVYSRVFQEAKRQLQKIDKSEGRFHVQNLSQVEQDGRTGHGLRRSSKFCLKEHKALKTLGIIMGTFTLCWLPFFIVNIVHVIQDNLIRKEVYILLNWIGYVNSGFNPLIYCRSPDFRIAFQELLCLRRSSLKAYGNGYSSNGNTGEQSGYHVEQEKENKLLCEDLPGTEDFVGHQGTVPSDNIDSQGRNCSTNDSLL
Galanin receptor type 2 (Homo sapiens), sequence (O43603 whole entry): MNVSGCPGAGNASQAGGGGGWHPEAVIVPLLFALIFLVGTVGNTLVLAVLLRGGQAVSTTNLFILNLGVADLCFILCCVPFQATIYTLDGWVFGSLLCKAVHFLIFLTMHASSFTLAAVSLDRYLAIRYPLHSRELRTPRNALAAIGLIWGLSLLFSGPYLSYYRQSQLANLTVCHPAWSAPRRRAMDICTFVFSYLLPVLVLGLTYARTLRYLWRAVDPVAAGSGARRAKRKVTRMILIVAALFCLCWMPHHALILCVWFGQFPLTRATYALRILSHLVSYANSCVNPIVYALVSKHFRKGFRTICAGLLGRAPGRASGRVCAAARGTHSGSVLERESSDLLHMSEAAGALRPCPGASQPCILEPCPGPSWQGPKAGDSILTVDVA
Type-1 angiotensin II receptor (Homo sapiens), sequence (P30556 whole entry): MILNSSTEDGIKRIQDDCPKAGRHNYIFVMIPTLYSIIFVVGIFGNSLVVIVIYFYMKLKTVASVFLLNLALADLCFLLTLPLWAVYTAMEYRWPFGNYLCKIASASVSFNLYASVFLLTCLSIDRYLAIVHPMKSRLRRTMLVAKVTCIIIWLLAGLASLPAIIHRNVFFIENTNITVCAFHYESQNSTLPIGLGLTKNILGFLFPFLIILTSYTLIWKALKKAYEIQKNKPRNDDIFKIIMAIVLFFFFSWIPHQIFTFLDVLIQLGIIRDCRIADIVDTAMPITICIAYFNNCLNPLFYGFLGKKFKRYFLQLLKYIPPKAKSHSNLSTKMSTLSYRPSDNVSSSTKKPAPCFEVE

Compound: CCOc1c(Cl)cc(C(=O)Nc2ccc(C(=O)O)c(C)c2)cc1OC(C)C
- Activity [1]: < 25%
- Activity [2]: < 25%
- Activity [3]: < 25%
- Activity (Rattus norvegicus): < 25%
- Activity [4]: < 25%
- Activity (Caspase-8 (Homo sapiens)): < 25%
- Activity [5]: < 25%
- Activity [6]: < 25%
- Activity [7]: < 25%
- Activity [8]: < 25%
- Activity [9]: < 25%
- Activity [10]: < 25%
- Activity (CHO-K1): Non-Toxic
- Activity [11]: < 25%
- Activity [12]: < 25%
- Activity (Salmonella typhimurium): Non-Toxic
- Activity [13]: < 25%
- Activity [14]: < 25%
- Activity (Homo sapiens): < 25%
